Reference: patent publication US10760110B2, “Antibiotic testing and screening system” (priority 2017, dated 2020)
≈ marks a conversion by molar mass, not a printed value. Where two headings read alike, the source gives them in different places.

Columns and labels:
[1] = system: K. pneumoniae NVT1001 and its ΔompK35/36 and/or ΔramR mutants; experiment: Etest MIC, OmpK35/36 loss and AcrAB-TolC overexpression (ΔramR) strains (Table 6); assay type: cell-based, Klebsiella pneumoniae
Method: (§1) The MICs of antibiotics were determined using the Etest (Biodisk AB, Sweden) according to the manufacturer's instructions. The MICs from the Etest, which fall between standard two-fold dilutions, were rounded up to the next highest two-fold value. The MICs of ceftazidime and cefotaxime against K. pneumoniae NVT1001 harbouring the pACYC177 plasmid with blaOXA-48 were further determined using a broth microdilution test according to the recommendations of the CLSI,^25 and the results were interpreted according to the breakpoints established by the CLSI in 2017.^25 Meanwhile, due to the lack of CLSI breakpoints in 2016 and 2017, the results for cephalothin were interpreted according to the breakpoints established by the CLSI in 2015,^26 and the results for moxifloxacin were interpreted according to the breakpoints established by the EUCAST in 2017.^27

[2] = system: K. pneumoniae NVT1001 strains with Sul/Dfr plasmids; experiment: Etest MIC of folate pathway inhibitors, OmpK35/36 loss, ΔramR and/or drug-resistant target enzyme (Table 15); assay type: cell-based, Klebsiella pneumoniae; settings: Klebsiella pneumoniae
Method: DNA fragments of the resistance genes along with their flanking regions were amplified from clinical plasmids via PCR with specific primer pairs. The resulting PCR fragments were digested and then cloned into the plasmid pACYC177 or pACYC184. The resulting plasmids were then transformed into K. pneumoniae strain NVT1001 via electroporation. The recombinant bacteria were plated onto LB agar plates containing kanamycin (50 mg/L) or chloramphenicol (50 mg/L), and the presence of the cloned gene was confirmed via PCR and DNA sequencing.
as §1

[3] = system: K. pneumoniae NVT1001 ΔramRΔompK35/36 mutant and its revertants; experiment: Etest MIC, ΔramRΔompK35/36 mutant and its revertants (Table 7); assay type: cell-based; settings: Klebsiella pneumoniae
Text: The allelic-exchange method was used to restore the wild-type gene in the K. pneumoniae NVT1001 mutants with constructed chromosome-mediated resistance mechanisms, as described by Tsai et al.^19 Briefly, a DNA fragment of the entire wild-type gene sequence along with flanking regions was amplified from K. pneumoniae NVT1001 using PCR with specific primers. The resulting PCR fragment was digested and then cloned into pUT-KB. For homologous recombination, this plasmid was transformed into E. coli S17-1 λpir^23 via electroporation and mobilized into the K. pneumoniae NVT1001 mutant via conjugation. […] After incubation in 20 mL BHI broth for 6 hours at 37° C. in the absence of kanamycin, the fully grown cultures were spread onto LB agar plates supplemented with 10% sucrose. After the double crossover occurred, the sucrose-resistant and kanamycin-susceptible colonies were selected, and the restoration of the wild-type gene was confirmed via DNA sequencing.
as §1

[4] = Klebsiella pneumoniae, WT, NVT1001, read-out: MIC
[5] = Klebsiella pneumoniae, Δ35, ΔompK35 mutant
[6] = Klebsiella pneumoniae, Δ35/36, ΔompK35/36 mutant
[7] = Klebsiella pneumoniae, Δ36, ΔompK36 mutant
[8] = Klebsiella pneumoniae, ΔramR mutant
[9] = Klebsiella pneumoniae, ΔramRΔ35, ΔramRΔompK35 mutant
[10] = Klebsiella pneumoniae, ΔramRΔ35/36, ΔramRΔompK35/36 mutant
[11] = Klebsiella pneumoniae, ΔramRΔ36, ΔramRΔompK36 mutant

Gentamicin
MIC ([1]; WT, NVT1001): 0.5 µg/mL | MIC ([1]; Δ35, ΔompK35 mutant): 0.5 µg/mL | MIC ([1]; Δ35/36, ΔompK35/36 mutant): 0.5 µg/mL | MIC ([1]; Δ36, ΔompK36 mutant): 0.5 µg/mL | MIC ([1]; ΔramR mutant): 0.5 µg/mL | MIC ([1]; ΔramRΔ35, ΔramRΔompK35 mutant): 0.25 µg/mL | MIC ([1]; ΔramRΔ35/36, ΔramRΔompK35/36 mutant): 0.5 µg/mL | MIC ([1]; ΔramRΔ36, ΔramRΔompK36 mutant): 0.5 µg/mL

NC[C@H]1O[C@H](O[C@H]2[C@H](O)[C@@H](O[C@H]3O[C@H](CO)[C@@H](O)[C@H](N)[C@H]3O)[C@H](N)C[C@@H]2N)[C@H](O)[C@@H](O)[C@@H]1O [Kanamycin]
MIC [1, 4]: 2 µg/mL (≈ 4.13 µM) | MIC [1, 5]: 2 µg/mL (≈ 4.13 µM) | MIC [1, 6]: 4 µg/mL (≈ 8.26 µM) | MIC [1, 7]: 2 µg/mL (≈ 4.13 µM) | MIC [1, 8]: 2 µg/mL (≈ 4.13 µM) | MIC [1, 9]: 2 µg/mL (≈ 4.13 µM) | MIC [1, 10]: 2 µg/mL (≈ 4.13 µM) | MIC [1, 11]: 2 µg/mL (≈ 4.13 µM)

NC[C@H]1O[C@H](O[C@H]2[C@H](O)[C@@H](O[C@H]3O[C@H](CO)[C@@H](O)[C@H](N)[C@H]3O)[C@H](N)C[C@@H]2N)[C@H](N)C[C@@H]1O [Tobramycin]
MIC [1, 4]: 0.5 µg/mL (≈ 1.07 µM) | MIC [1, 5]: 0.5 µg/mL (≈ 1.07 µM) | MIC [1, 6]: 0.5 µg/mL (≈ 1.07 µM) | MIC [1, 7]: 0.5 µg/mL (≈ 1.07 µM) | MIC [1, 8]: 0.5 µg/mL (≈ 1.07 µM) | MIC [1, 9]: 0.5 µg/mL (≈ 1.07 µM) | MIC [1, 10]: 1 µg/mL (≈ 2.14 µM) | MIC [1, 11]: 0.5 µg/mL (≈ 1.07 µM)

Cc1cc(NS(=O)(=O)c2ccc(N)cc2)no1 [Sulfamethoxazole]
MIC ([2]; DfrA1 on pACYC177, WT (NVT1001), read-out: MIC): 256 µg/mL | MIC ([2]; DfrA1 on pACYC177, ΔompK35/36 mutant): > 1020 µg/mL | MIC ([2]; DfrA1 on pACYC177, ΔompK35 mutant): > 1020 µg/mL | MIC ([2]; DfrA1 on pACYC177, ΔompK36 mutant): > 1020 µg/mL | MIC ([2]; DfrA1 on pACYC177, ΔramR mutant): > 1020 µg/mL | MIC ([2]; DfrA1 on pACYC177, ΔramRΔompK35/36 mutant): > 1020 µg/mL | MIC ([2]; DfrA1 on pACYC177, ΔramRΔompK35 mutant): > 1020 µg/mL | MIC ([2]; DfrA1 on pACYC177, ΔramRΔompK36 mutant): > 1020 µg/mL | MIC ([2]; DfrA16 on pACYC177, WT (NVT1001), read-out: MIC): 256 µg/mL | MIC ([2]; DfrA16 on pACYC177, ΔompK35/36 mutant): > 1020 µg/mL | MIC ([2]; DfrA16 on pACYC177, ΔompK35 mutant): > 1020 µg/mL | MIC ([2]; DfrA16 on pACYC177, ΔompK36 mutant): > 1020 µg/mL | MIC ([2]; DfrA16 on pACYC177, ΔramR mutant): > 1020 µg/mL | MIC ([2]; DfrA16 on pACYC177, ΔramRΔompK35/36 mutant): > 1020 µg/mL | MIC ([2]; DfrA16 on pACYC177, ΔramRΔompK35 mutant): > 1020 µg/mL | MIC ([2]; DfrA16 on pACYC177, ΔramRΔompK36 mutant): > 1020 µg/mL | MIC ([2]; Sul1 on pACYC177, WT (NVT1001), read-out: MIC): > 1020 µg/mL | MIC ([2]; Sul1 on pACYC177, ΔompK35/36 mutant): > 1020 µg/mL | MIC ([2]; Sul1 on pACYC177, ΔompK35 mutant): > 1020 µg/mL | MIC ([2]; Sul1 on pACYC177, ΔompK36 mutant): > 1020 µg/mL | MIC ([2]; Sul1 on pACYC177, ΔramR mutant): > 1020 µg/mL | MIC ([2]; Sul1 on pACYC177, ΔramRΔompK35/36 mutant): > 1020 µg/mL | MIC ([2]; Sul1 on pACYC177, ΔramRΔompK35 mutant): > 1020 µg/mL | MIC ([2]; Sul1 on pACYC177, ΔramRΔompK36 mutant): > 1020 µg/mL | MIC ([2]; Sul2 on pACYC177, WT (NVT1001), read-out: MIC): > 1020 µg/mL | MIC ([2]; Sul2 on pACYC177, ΔompK35/36 mutant): > 1020 µg/mL | MIC ([2]; Sul2 on pACYC177, ΔompK35 mutant): > 1020 µg/mL | MIC ([2]; Sul2 on pACYC177, ΔompK36 mutant): > 1020 µg/mL | MIC ([2]; Sul2 on pACYC177, ΔramR mutant): > 1020 µg/mL | MIC ([2]; Sul2 on pACYC177, ΔramRΔompK35/36 mutant): > 1020 µg/mL | MIC ([2]; Sul2 on pACYC177, ΔramRΔompK35 mutant): > 1020 µg/mL | MIC ([2]; Sul2 on pACYC177, ΔramRΔompK36 mutant): > 1020 µg/mL | MIC ([2]; no supplemental plasmid, WT (NVT1001), read-out: MIC): 256 µg/mL | MIC ([2]; no supplemental plasmid, ΔompK35/36 mutant): > 1020 µg/mL | MIC ([2]; no supplemental plasmid, ΔompK35 mutant): 256 µg/mL | MIC ([2]; no supplemental plasmid, ΔompK36 mutant): > 1020 µg/mL | MIC ([2]; no supplemental plasmid, ΔramR mutant): > 1020 µg/mL | MIC ([2]; no supplemental plasmid, ΔramRΔompK35/36 mutant): > 1020 µg/mL | MIC ([2]; no supplemental plasmid, ΔramRΔompK35 mutant): > 1020 µg/mL | MIC ([2]; no supplemental plasmid, ΔramRΔompK36 mutant): > 1020 µg/mL | MIC ([1]; Klebsiella pneumoniae, WT, NVT1001): 256 µg/mL (≈ 1010 µM) | MIC [1, 5]: 256 µg/mL (≈ 1010 µM) | MIC [1, 6]: > 1020 µg/mL | MIC [1, 7]: > 1020 µg/mL | MIC [1, 8]: > 1020 µg/mL | MIC [1, 9]: > 1020 µg/mL | MIC [1, 10]: > 1020 µg/mL | MIC [1, 11]: > 1020 µg/mL | MIC ([3]; ΔramRΔompK35/36::ompK35/36 revertant): > 1020 µg/mL | MIC ([3]; ΔramRΔompK35/36::ompK35 revertant): > 1020 µg/mL | MIC ([3]; ΔramRΔompK35/36::ompK36 revertant): > 1020 µg/mL | MIC ([3]; ΔramRΔompK35/36::ramR revertant): > 1020 µg/mL | MIC ([3]; ΔramRΔompK35/36::ramR::ompK35/36 revertant): 256 µg/mL | MIC ([3]; ΔramRΔompK35/36::ramR::ompK35 revertant): > 1020 µg/mL | MIC ([3]; ΔramRΔompK35/36::ramR::ompK36 revertant): 256 µg/mL | MIC ([3]; ΔramRΔompK35/36 mutant): > 1020 µg/mL
